# Biological target: T1, Recombinant human PAD2 (residues 1-665) (Homo sapiens, UniProt Q9Y2J8)
# T1 construct: Recombinant human PAD2 (residues 1-665) was expressed in baculovirus-infected Sf9 insect cells; 6His-FLAG (N); made in house; host or cells: baculovirus-infected Sf9 insect cells
# Assay: PAD2 enzyme assay (FLINT NH3 release, BAEE substrate)
# Type: biochemical
# Conditions: PAD2 enzyme assay above or similar assays; to assess selectivity for PAD4 over PAD2; read-out: mean pIC50 (converted)
# Procedure: Activity of the final product was determined using a FLINT NH3 release assay.
# 8 μl of PAD2 enzyme diluted to an assay concentration of 30 nM in assay buffer (100 mM HEPES, 50 mM NaCl, 2 mM DTT, 7.5% glycerol and 1.5 mM CHAPS pH 8), and added to wells containing 0.1 μl of various concentrations of compound or DMSO vehicle (0.8% final) in a Greiner high volume 384 well black plate. […] The reaction was stopped after 90 mins with the addition of […] stop/detection buffer containing 50 mM EDTA, 2.6 mM phthalaldehyde and 2.6 mM DTT.
# T1 sequence (Q9Y2J8 whole entry, the tested form may be a part): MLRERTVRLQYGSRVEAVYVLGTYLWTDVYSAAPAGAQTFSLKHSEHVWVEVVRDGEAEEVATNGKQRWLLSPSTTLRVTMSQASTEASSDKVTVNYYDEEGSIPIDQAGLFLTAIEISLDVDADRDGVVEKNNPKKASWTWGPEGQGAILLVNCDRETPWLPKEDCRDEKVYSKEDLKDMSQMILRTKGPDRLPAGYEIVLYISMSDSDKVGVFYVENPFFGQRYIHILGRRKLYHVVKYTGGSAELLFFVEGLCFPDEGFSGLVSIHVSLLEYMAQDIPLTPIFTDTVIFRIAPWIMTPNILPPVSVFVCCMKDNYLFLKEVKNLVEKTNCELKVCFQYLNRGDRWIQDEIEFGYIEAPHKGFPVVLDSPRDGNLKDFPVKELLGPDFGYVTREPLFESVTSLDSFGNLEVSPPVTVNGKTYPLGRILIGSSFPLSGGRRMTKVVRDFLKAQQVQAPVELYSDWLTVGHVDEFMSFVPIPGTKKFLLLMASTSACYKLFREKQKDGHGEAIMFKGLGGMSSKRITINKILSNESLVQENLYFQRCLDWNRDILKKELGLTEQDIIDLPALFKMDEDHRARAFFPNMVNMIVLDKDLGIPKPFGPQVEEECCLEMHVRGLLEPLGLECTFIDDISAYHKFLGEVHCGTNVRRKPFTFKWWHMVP
row,IC50,SMILES
1,≥ 10 µM,"CCn1c(-c2nc3cc(C(=O)N4CCC[C@@H](N)C4)ccc3n2CCN)cc2ccccc21 [Example 48, (R)-(1-(2-Aminoethyl)-2-(1-ethyl-1H-indol-2-yl)-1H-benzo[d]imidazol-5-yl)(3-aminopiperidin-1-yl)methanone]"
2,≥ 10 µM,"CCn1c(-c2nc3cc(C(=O)N4CCC[C@@H](N)C4)cc(OC(F)(F)F)c3n2C)cc2ccccc21 [Example 34, (R)-(3-Aminopiperidin-1-yl)(2-(1-ethyl-1H-indol-2-yl)-1-methyl-7-(trifluoromethoxy)-1H-benzo[d]imidazol-5-yl)methanone]"
3,> 79.4 µM,"COc1cc(C(=O)N2CCC[C@@H](N)C2)cc2nc(-c3cc4ccccc4n3CC3CCOCC3)n(C)c12 [Example 70, (R)-(3-Aminopiperidin-1-yl)(7-methoxy-1-methyl-2-(1-((tetrahydro-2H-pyran-4-yl)methyl)-1H-indol-2-yl)-1H-benzo[d]imidazol-5-yl)methanone]"
4,> 79.4 µM,"Cn1c(-c2nc3cc(C(=O)N4CCC[C@@H](N)C4)ccc3n2C)cc2ccccc21 [Example 37, (R)-(3-Aminopiperidin-1-yl)(1-methyl-2-(1-methyl-1H-indol-2-yl)-1H-benzo[d]imidazol-5-yl)methanone]"
5,> 79.4 µM,"CCn1c(-c2nc3cc(C(=O)N4CCC[C@@H](N)C4)cc(OCC(N)=O)c3n2C)cc2ccccc21 [Example 114, (R)-2-((5-(3-Aminopiperidine-1-carbonyl)-2-(1-ethyl-1H-indol-2-yl)-1-methyl-1H-benzo[d]imidazol-7-yl)oxy)acetamide]"
6,≥ 10 µM,"Cn1c(-c2cc3ccccc3[nH]2)nc2cc(C(=O)N3CCC[C@@H](N)C3)ccc21 [Example 18, (3R)-1-{[2-(1H-Indol-2-yl)-1-methyl-1H-benzimidazol-5-yl]carbonyl}-3-piperidinamine]"
7,> 79.4 µM,"CCn1c(-c2nc3cc(C(=O)N4CC[C@H](OC)[C@@H](N)C4)ccc3n2C)cc2ccccc21 (racemic) [Example 51, (+/−)-((trans)-3-Amino-4-methoxypiperidin-1-yl)(2-(1-ethyl-1H-indol-2-yl)-1-methyl-1H-benzo[d]imidazol-5-yl)methanone]"
8,≥ 10 µM,"CCn1c(-c2nc3cc(C(=O)N4CCC[C@@H](N)C4)cc(OCCOC)c3n2C)cc2ccccc21 [Example 111, (R)-(3-Aminopiperidin-1-yl)(2-(1-ethyl-1H-indol-2-yl)-7-(2-methoxyethoxy)-1-methyl-1H-benzo[d]imidazol-5-yl)methanone]"
9,> 79.4 µM,"CCn1c(-c2nc3cc(C(=O)N4CC[C@@H](O)[C@@H](N)C4)cc(OC)c3n2C)cc2ccccc21 [Example 67, ((3S,4R)-3-Amino-4-hydroxypiperidin-1-yl)(2-(1-ethyl-1H-indol-2-yl)-7-methoxy-1-methyl-1H-benzo[d]imidazol-5-yl)methanone]"
10,≥ 10 µM,"CCn1c(-c2nc3cc(C(=O)N4CCC[C@@H](N)C4)cc(OCC#N)c3n2C)cc2ccccc21 [Example 113, (R)-2-((5-(3-Aminopiperidine-1-carbonyl)-2-(1-ethyl-1H-indol-2-yl)-1-methyl-1H-benzo[d]imidazol-7-yl)oxy)acetonitrile]"
11,≥ 10 µM,"CC(C)n1c(-c2nc3cc(C(=O)N4CCC[C@@H](N)C4)ccc3n2C)cc2ccccc21 [Example 12, (3R)-1-({1-Methyl-2-[1-(1-methylethyl)-1H-indol-2-yl]-1H-benzimidazol-5-yl}carbonyl)-3-piperidinamine]"
12,> 79.4 µM,"CCn1c(-c2nc3cc(C(=O)N4CCC[C@@H](N)C4)ccc3n2CC)cc2ccccc21 [Example 95, (R)-(3-Aminopiperidin-1-yl)(1-ethyl-2-(1-ethyl-1H-indol-2-yl)-1H-benzo[d]imidazol-5-yl)methanone]"
13,≥ 10 µM,"COc1cc(C(=O)N2CC[C@@H](O)[C@@H](N)C2)cc2nc(-c3cc4ccccc4n3CC(F)(F)F)n(C)c12 [Example 58a, ((3S,4R)-3-Amino-4-hydroxypiperidin-1-yl)(7-methoxy-1-methyl-2-(1-(2,2,2-trifluoroethyl)-1H-indol-2-yl)-1H-benzo[d]imidazol-5-yl)methanone]"
14,≥ 10 µM,"CC(C)Cn1c(-c2nc3cc(C(=O)N4CCC[C@@H](N)C4)ccc3n2C)cc2ccccc21 [Example 19, (3R)-1-({1-Methyl-2-[1-(2-methylpropyl)-1H-indol-2-yl]-1H-benzimidazol-5-yl}carbonyl)-3-piperidinamine]"
15,≥ 10 µM,"Cn1cc(Cn2c(-c3nc4cc(C(=O)N5CCC[C@@H](N)C5)ccc4n3C)cc3ccccc32)cn1 [Example 20a, (3R)-1-[(1-methyl-2-{1-[(1-methyl-1H-pyrazol-4-yl)methyl]-1H-indol-2-yl}-1H-benzimidazol-5-yl)carbonyl]-3-piperidinamine]"
16,> 79.4 µM,"COCCn1c(-c2nc3cc(C(=O)N4CCC[C@@H](N)C4)ccc3n2C)cc2ccccc21 [Example 22, (3R)-1-[(1-methyl-2-{1-[2-(methyloxy)ethyl]-1H-indol-2-yl}-1H-benzimidazol-5-yl)carbonyl]-3-piperidinamine]"
17,≥ 10 µM,"COc1cc(C(=O)N2CC[C@H](O)[C@H](N)C2)cc2nc(-c3cc4ccccc4n3CC(F)(F)F)n(C)c12 [Example 59, ((3R,4S)-3-Amino-4-hydroxypiperidin-1-yl)(7-methoxy-1-methyl-2-(1-(2,2,2-trifluoroethyl)-1H-indol-2-yl)-1H-benzo[d]imidazol-5-yl)methanone]"
18,≥ 10 µM,CCn1c(-c2nc3cc(C(=O)N4CCC[C@@H](N)C4)ccc3n2C)cc2ccccc21 [Example 1a]
19,> 79.4 µM,"CCn1c(-c2nc3cc(C(=O)N4CCC[C@@H](N)C4)cnc3n2C)cc2ccccc21 [Example 96, (R)-(3-Aminopiperidin-1-yl)(2-(1-ethyl-1H-indol-2-yl)-3-methyl-3H-imidazo[4,5-b]pyridin-6-yl)methanone]"
20,≥ 10 µM,"CCn1c(-c2nc3cc(C(=O)N4CCC[C@@H](N)C4)ccc3n2C)cc2cccc(OC)c21 [Example 2, (3R)-1-({2-[1-ethyl-7-(methyloxy)-1H-indol-2-yl]-1-methyl-1H-benzimidazol-5-yl}carbonyl)-3-piperidinamine]"
21,≥ 10 µM,"CCc1cc(C(=O)N2CCC[C@@H](N)C2)cc2nc(-c3cc4ccccc4n3CC)n(C)c12 [Example 75, (R)-(3-Aminopiperidin-1-yl)(7-ethyl-2-(1-ethyl-1H-indol-2-yl)-1-methyl-1H-benzo[d]imidazol-5-yl)methanone]"
22,≥ 10 µM,"Cn1c(-c2cc3ccccc3n2CC2CC2)nc2cc(C(=O)N3CCC[C@@H](N)C3)ccc21 [Example 16, (3R)-1-({2-[1-(Cyclopropylmethyl)-1H-indol-2-yl]-1-methyl-1H-benzimidazol-5-yl}carbonyl)-3-piperidinamine]"
23,> 79.4 µM,"Cn1c(-c2cc3ccccc3n2CCO)nc2cc(C(=O)N3CCC[C@@H](N)C3)ccc21 [Example 29, 2-[2-(5-{[(3R)-3-Amino-1-piperidinyl]carbonyl}-1-methyl-1H-benzimidazol-2-yl)-1H-indol-1-yl]ethanol]"
24,≥ 10 µM,"CCn1c(-c2nc3cc(C(=S)N4CCC[C@@H](N)C4)ccc3n2C)cc2ccccc21 [Example 135, (R)-(3-Aminopiperidin-1-yl)(2-(1-ethyl-1H-indol-2-yl)-1-methyl-1H-benzo[d]imidazol-5-yl)methanethione]"

# From patent US10407407B2, “Benzoimidazole derivatives as PAD4 inhibitors” (GLAXOSMITHKLINE INTELLECTUAL PROPERTY DEVELOPMENT LIMITED, priority 2015, dated 2019)
